Reference: PubChem BioAssay (NCI)
Values joined by “and” are separate entries in the source; they are usually repeats but may differ in a detail not shown here. Equal values may be shown once.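 Briefly, cells in 96-well plates were exposed to five compound concentrations for 48 h, and endpoints were estimated by linear interpolation. GI50 is the concentration that inhibits growth by half. TGI denotes the concentration required for complete inhibition of growth.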

How the values were obtained:
Test in all cases: NCI anticancer screen, dose series, 48 h
LOX IMVI melanoma = test system: LOX IMVI melanoma
HT29 colon = test system: HT29 colon
MOLT-4 leukemia = test system: MOLT-4 leukemia
IGROV1 ovarian = test system: IGROV1 ovarian
COLO 205 colon = test system: COLO 205 colon
NCI-H460 lung = test system: NCI-H460 lung
UACC-257 melanoma = test system: UACC-257 melanoma
T-47D breast = test system: T-47D breast
RXF 393 renal = test system: RXF 393 renal
HOP-62 NSCLC = test system: HOP-62 NSCLC

Structure (SMILES)	GI50 (LOX IMVI melanoma)	TGI (LOX IMVI melanoma)	GI50 (HT29 colon)	TGI (HT29 colon)	GI50 (MOLT-4 leukemia)	TGI (MOLT-4 leukemia)	GI50 (IGROV1 ovarian)	TGI (IGROV1 ovarian)	GI50 (COLO 205 colon)	TGI (COLO 205 colon)	GI50 (NCI-H460 lung)	TGI (NCI-H460 lung)	GI50 (UACC-257 melanoma)	TGI (UACC-257 melanoma)	GI50 (T-47D breast)	TGI (T-47D breast)	GI50 (RXF 393 renal)	TGI (RXF 393 renal)	GI50 (HOP-62 NSCLC)	TGI (HOP-62 NSCLC)
O=C(OCc1ccc2c(Cl)cc(Cl)c(O)c2n1)c1cc2ccccc2[nH]1	0.17 µM	0.332 µM	0.32 µM	1.03 µM	0.407 µM	2.35 µM	0.219 µM	0.5 µM	0.834 µM	2.45 µM	1.66 µM	3.52 µM	0.88 µM	3 µM	1.49 µM	4.35 µM	0.338 µM	1.08 µM	1.63 µM	3.81 µM
CN(C[C@@H]1COCCO1)S(=O)(=O)Nc1ccc2ccc3ncc(-c4cnn(C)c4)cc3c(=O)c2c1	3.37 µM	> 100 µM	19.7 µM	> 100 µM	4.08 µM	> 91.3 µM	2.5 µM	> 100 µM	19.3 µM	> 100 µM	4.26 µM	> 100 µM	> 100 µM	> 100 µM	5.54 µM	> 100 µM	1.1 µM	6.71 µM	10.9 µM	> 100 µM
CCOC(=O)c1cc2c(n1Cc1ccccc1)-c1oncc1CC2	5.5 µM	25.4 µM	3.23 µM	14.4 µM	4.73 µM	44.6 µM	4.98 µM	60.1 µM	3.93 µM	14.2 µM	3.08 µM	11.4 µM	10.7 µM	59.7 µM	4.66 µM	32 µM	6.88 µM	30.9 µM	5.3 µM	> 100 µM
NC(=O)/C=C/NC(=O)/C=N\O	–	> 100 µM	–	> 100 µM	–	> 100 µM	–	> 100 µM	–	> 100 µM	–	> 100 µM	–	> 100 µM	–	> 100 µM	–	> 100 µM	–	> 100 µM
Cc1c(NC(=O)OC[C@@H]2COCCN2)cn2ncnc(Nc3ccc4c(cnn4Cc4cccc(F)c4)c3)c12	5.8 µM and 5.39 µM	> 10 µM and 19.4 µM	6.38 µM and 4.65 µM	> 10 µM and 16.9 µM	7.63 µM and 7.76 µM	> 10 µM and 24.1 µM	0.855 µM and 2.16 µM	> 10 µM and 19.9 µM	4.75 µM and 5.07 µM	> 10 µM and 16.9 µM	> 10 µM and 6.57 µM	> 10 µM and 24 µM	> 10 µM and 5.34 µM	> 10 µM and 18.2 µM	1.36 µM and 1.14 µM	9.52 µM and 10.3 µM	2.89 µM and 4.15 µM	> 10 µM and 15.3 µM	> 10 µM and 11.5 µM	> 10 µM and 24.9 µM
CC(=O)[O][Hg][c]1ccccc1	0.227 µM	0.696 µM	0.626 µM	2.46 µM	0.19 µM	0.551 µM	0.295 µM	0.934 µM	0.65 µM	1.67 µM	0.934 µM	3.82 µM	0.908 µM	2.18 µM	0.163 µM	0.382 µM	0.234 µM	0.797 µM	1.62 µM	3.11 µM
C=C1C(=O)O[C@H]2[C@H]1CC/C(COC(=O)c1ccc(C#N)cc1)=C\CC[C@@]1(C)O[C@@H]21	1.56 µM	2.99 µM	1.62 µM	4.02 µM	2.37 µM	6.52 µM	1.38 µM	4.27 µM	1.63 µM	3.81 µM	3.46 µM	14.5 µM	1.69 µM	4.1 µM	1.74 µM	5.24 µM	1.03 µM	2.32 µM	7.43 µM	22.6 µM
N#Cc1ccc(C(c2ccc(C#N)cc2)n2cncn2)cc1	> 5000 µM	> 5000 µM	> 5000 µM	> 5000 µM	> 5000 µM	> 5000 µM	47.5 µM	–	> 5000 µM	> 5000 µM	> 5000 µM	> 5000 µM	> 5000 µM	> 5000 µM	> 5000 µM	> 5000 µM	18.3 µM	–	915 µM	> 5000 µM
C/C(Cc1ccc(Cl)cc1)=C(/c1ccc(Cl)cc1)c1ccc(OCCN(C)C)cc1	3.02 µM	7.18 µM	1.36 µM	5.85 µM	4.01 µM	10 µM	3.73 µM	8.56 µM	1 µM	4.53 µM	1.22 µM	4.49 µM	4.24 µM	9.38 µM	3.83 µM	9.92 µM	3.45 µM	7.54 µM	6.07 µM	11.8 µM
O=C(O)c1ccc2c(c1)nc(Nc1cccc(Cl)c1)c1ccncc12	2.04 µM and 2.7 µM	10.7 µM and > 10 µM	5.48 µM and 6.26 µM	33.3 µM and > 10 µM	3.07 µM and 4.6 µM	7.4 µM and > 10 µM	3.56 µM and 2.68 µM	–	4.21 µM and 3.67 µM	15.1 µM and > 10 µM	3.48 µM and 4.32 µM	25.1 µM and > 10 µM	3.88 µM and 2.68 µM	20.3 µM and > 10 µM	2.83 µM and 1.33 µM	> 39.1 µM and 5.71 µM	3.23 µM and 4.17 µM	13 µM and > 10 µM	3.3 µM and 3.38 µM	25.5 µM and > 10 µM
CSc1ccc(/C=C/c2ccnc3ccccc23)cc1	–	25.4 µM	–	31 µM	–	66.9 µM	–	39.4 µM	–	27.5 µM	–	27.3 µM	–	32.9 µM	–	41.7 µM	–	33 µM	–	34.8 µM
O=C(CCCCCCSc1nc(-c2ccc(Cl)cc2)cc(-c2ccc(Cl)cc2)n1)NO	1.28 µM	3.75 µM	1.41 µM	7.46 µM	1.5 µM	> 50 µM	1.7 µM	12.8 µM	1.55 µM	8.04 µM	1.41 µM	5.93 µM	2.15 µM	> 50 µM	1.39 µM	9.13 µM	1.07 µM	2.83 µM	1.52 µM	6.47 µM
Nc1nc(N)c2nc(CNc3ccc(C(=O)NC(CCCNC(=O)c4ccccc4C(=O)O)C(=O)O)cc3)cnc2n1 (centres undefined)	0.000373 µM	> 100 µM	0.00102 µM	> 100 µM	0.00353 µM	> 100 µM	0.0249 µM	> 100 µM	0.0765 µM	> 100 µM	0.00045 µM	> 100 µM	0.0155 µM	> 100 µM	–	> 100 µM	–	> 100 µM	< 0.02 µM and 0.00449 µM and < 0.0546 µM	> 100 µM
Cc1nc(N)sc1C(=O)Nc1cc(C(=O)NCCCN(C)C)n(C)c1	> 100 µM	> 100 µM	> 100 µM	> 100 µM	> 100 µM	> 100 µM	> 100 µM	> 100 µM	> 100 µM	> 100 µM	> 100 µM	> 100 µM	> 100 µM	> 100 µM	35.7 µM	> 100 µM	> 100 µM	> 100 µM	> 100 µM	> 100 µM
N[C@@H]1CCCN(c2c(/C=C3\SC(=O)NC3=O)cccc2-c2ccccc2)C1	15.7 µM	30.1 µM	12.8 µM	27.8 µM	14.7 µM	45.6 µM	17.2 µM	35.1 µM	11.6 µM	25.5 µM	16.9 µM	35.3 µM	10.9 µM	23.5 µM	11.2 µM	28.8 µM	6.06 µM	20.2 µM	11.7 µM	25.5 µM
CCc1nc(N)nc(N)c1-c1ccc(NCCc2ccccc2)c([N+](=O)[O-])c1	–	> 100 µM	–	22.4 µM	–	33.3 µM	–	47.8 µM	–	16.9 µM	–	> 53.9 µM	–	26.2 µM	–	> 52.8 µM	–	40.7 µM	–	> 46.9 µM
CCCCC#CC#Cc1cccc(=O)o1	16.2 µM	32.3 µM	13.5 µM	36.1 µM	4.77 µM	32.1 µM	30.7 µM	75.8 µM	17.7 µM	35 µM	20.9 µM	> 100 µM	22.1 µM	46.7 µM	8.34 µM	25.7 µM	32.9 µM	> 100 µM	18.1 µM	34.4 µM
Cc1ccc(S(=O)(=O)Cc2nc(-c3ccc(C(=O)NCc4cccnc4)cc3)oc2C)cc1	8.12 µM	> 100 µM	0.0784 µM	> 100 µM	0.595 µM	> 100 µM	0.189 µM	> 100 µM	0.492 µM	> 100 µM	0.843 µM	> 100 µM	> 100 µM	> 100 µM	0.287 µM	> 100 µM	27.6 µM	> 100 µM	15.4 µM	> 88.8 µM
COc1ccc(-c2csc(-c3cc(Cl)cc(Cl)c3Cl)n2)cc1	> 100 µM	> 100 µM	47.5 µM	> 100 µM	57 µM	> 100 µM	56.8 µM	> 100 µM	> 100 µM	> 100 µM	46.5 µM	> 100 µM	62.7 µM	> 100 µM	40.3 µM	> 100 µM	46.4 µM	> 100 µM	> 100 µM	> 100 µM
COc1ccc(-c2cc(=O)c3c(O)cc(C)cc3o2)cc1OC	–	> 100 µM	–	> 100 µM	–	> 100 µM	–	> 100 µM	–	> 100 µM	–	> 100 µM	–	> 100 µM	–	> 100 µM	–	> 100 µM	–	> 100 µM
C[C@H]1C(Oc2ccc(O)cc2)OC2OC3(C)CCC4[C@H](C)CCC1C24OO3 (some centres undefined)	11.5 µM	30.6 µM	8.86 µM	27.4 µM	–	> 63.6 µM	16.7 µM	32.5 µM	0.867 µM	13.7 µM	15.1 µM	30.5 µM	13.1 µM	28.4 µM	2.1 µM	26.9 µM	19.1 µM	41.3 µM	21.8 µM	51.5 µM
O=C(c1ccccc1)c1nc2ccc(C(F)(F)F)cc2[n+]([O-])c1C(F)(F)F	33.6 µM	> 100 µM	48.6 µM	> 100 µM	23 µM	73.7 µM	16.4 µM	52.2 µM	26.8 µM	> 100 µM	23.5 µM	> 100 µM	22.7 µM	> 100 µM	20.4 µM	> 100 µM	31.8 µM	> 100 µM	59.6 µM	> 100 µM
